This data set is described as follows: in vitro. Particulars: human, hela cells, % viability.

Data on 79 compounds can be found in publication PMC12040169 (PLOS Biology, 2025).

Regarding `C=CCN1C(=O)CC2(C1=O)C(=O)N(C)c1ccc(Cl)cc12` (stereo not shown) [CBK075242], the viability at 28.5 h, 10 µM was 110%.
The same measure, in the same setting: to `NS(=O)(=O)c1ccc(CNC(=S)NC2CCCC2)cc1` [CBK265802] belongs 97.8%.
On the same count and under the same terms, next, `NS(=O)(=O)c1ccc(CCNC(=O)c2ccc(-c3ccccc3)nc2NCCc2ccccn2)cc1` [CBK076616]: 111%; `COc1ccc(-c2cc(=O)oc3cc(OCC(=O)c4cc5ccccc5o4)ccc23)cc1` [CBK265634]: 97.7%.
In the case of `CS(=O)(=O)N1CC2(CCN(Cc3ccc4nsnc4c3)CC2)c2ccccc21` [CBK136957], the viability at 28.5 h, 10 µM stood at 92.9%.
On the same count and under the same terms, to `C=CCNc1nccnc1-c1cccc(O)c1` [CBK088505] belongs 88.2%; to `CC(C)NC(=O)c1sc2ccccc2c1C1CN(Cc2ccc3ncccc3c2)CCO1` (stereo not shown) [CBK285930], 81.5%.
For `c1csc(-c2cncc(NCCc3ccncc3)n2)c1` [CBK065797], the viability at 28.5 h, 10 µM turned out to be 105%.
On the same count and under the same terms, to `O=C1N=C(N2CCCCCC2)SC1CC(=O)N1CCCc2ccccc21` (stereo not shown) [CBK063336] belongs 93.4%; to `CC(Cn1cncn1)NC(=O)c1cccc(S(=O)(=O)NC2CCCC2)c1` (stereo not shown) [CBK304209], 89%.
On the same count and under the same terms, to `CCOC(=O)c1ccccc1NC(=O)CCC(=O)O` [CBK261631] belongs 93.5%; to `O=C(NC(c1ccc(Cl)cc1)c1ccsc1)C1CCN(CCCN2C(=O)CC3CCCCC3C2=O)CC1` (stereo not shown) [CBK147974], 85.3%.
On the same count and under the same terms, next, `O=C(O)c1ccc(CN2C[C@H](O)C[C@H]2c2nc(-c3ccc(F)cc3)no2)cc1` [CBK288870]: 112%; `COc1ccc(-c2cc(NC3CCCCC3)ncn2)cc1` [CBK090904]: 96.8%.
Turning to `COc1ccc(-c2cc(C[C@H]3CNCC[C@H]3CC(=O)N3CCN(C)CC3)no2)cc1` [CBK289152], the viability at 28.5 h, 10 µM was 83.8%.
Same read-out and setting: to `COc1ccccc1Oc1ccc([N+](=O)[O-])cc1F` [CBK002850] belongs 90.8%; to `CCCCc1ccc(Nc2csc(N)n2)cc1` [CBK020594], 82.5%; to `O=C(Nc1cccc(C=Cc2ccccn2)c1)c1c[nH]nc1-c1ccc(F)cc1` [CBK295335], 78%.
Turning to `O=C(Nc1ccccn1)c1cnn(-c2ccc(Cl)cc2)c1C(F)(F)F` [CBK107442], the viability at 28.5 h, 10 µM is 92.2%.
Still for that read-out and setting: next, `Cc1ccccc1OCC(O)Cn1c(=N)n(CCN2CCCCC2)c2ccccc21` (stereo not shown) [CBK266698C]: 98.1%.
The same measure, in the same setting: to `CS(=O)(=O)N1CC2(CCN(CCc3ccccc3)CC2)c2ccccc21` [CBK084015] belongs 88.3%.
Still for that read-out and setting: next, `Cc1nc(C)c(CC(=O)N2CCC(Oc3cccc(F)c3)CC2)s1` [CBK282223]: 97.4%; `N#CCCNS(=O)(=O)c1ccc(OC(F)(F)F)cc1` [CBK043560]: 97.9%.
Take `CCCN1CCN(c2ncnc3scc(C4COc5ccccc5O4)c23)CC1` (stereo not shown) [CBK266590]: the viability at 28.5 h, 10 µM amounted to 102%.
Still for that read-out and setting: to `CC(NC(=O)N1CCSCC1)c1cccc(N2CCCC2)c1` (stereo not shown) [CBK305230] belongs 92%; to `COC(=O)[C@@H]1Cc2ncn(C)c2CN1S(=O)(=O)c1ccc(C#N)cc1` [CBK288993], 83.9%.
Still for that read-out and setting: next, `COc1ccc(CCNC(=O)C2CCCN(S(=O)(=O)c3ccc4ccccc4c3)C2)cc1` (stereo not shown) [CBK269601]: 101%; `CCCc1[nH]nc(O)c1Cc1ccccc1C(F)(F)F` [CBK075037]: 92.7%.
Still for that read-out and setting: next, `CCn1cc(C2CN(S(=O)(=O)c3cccc(C(C)C)c3)CCO2)cn1` (stereo not shown) [CBK304227]: 105%; `Cc1ccc2c(c1)C1(CC(=O)N(C)C1=O)C(=O)N2CCOc1cccc2c1OCCO2` (stereo not shown) [CBK075529]: 99.6%.
Regarding `CCCSc1nnc(NC(=O)c2nc(SC)ncc2Cl)s1` [CBK268759], the viability at 28.5 h, 10 µM came out at 95.2%.
Consider `CCc1nc2ccc(C(=O)Nc3ccc(Cl)c(Cl)c3)cn2c1N(CC)CCOC` [CBK146042], for which the viability at 28.5 h, 10 µM is 94%.
On the same count and under the same terms, to `Cc1nn(Cc2cccc(Oc3ccccc3)c2)c(C)c1NC(=O)c1nc2ncccn2n1` [CBK267632] belongs 89%; to `COc1cccc(CNCC2CCCO2)c1OCc1ccccc1` (stereo not shown) [CBK269798C], 105%; to `O=C(O)CCc1ccc(NS(=O)(=O)c2ccc(N3CCCC3=O)cc2)cc1` [CBK299788], 116%.
Same read-out and setting: to `CC(Cn1nnc2ccccc21)C(=O)O` (stereo not shown) [CBK264727] belongs 117%; to `CCC1CN(C(=O)Cn2cnc3ccc(F)cc3c2=O)CCO1` (stereo not shown) [CBK305795], 92.4%; to `Cc1cc(C(=O)O)ccc1-c1ccc(/C=C/c2[nH]c(=O)[nH]c(=O)c2[N+](=O)[O-])o1` [CBK266998], 97.3%.
Consider `O=C(Nc1ccc(N2CCOCC2)cc1)c1ccc(-n2cnnc2)cc1Cl` [CBK269889], for which the viability at 28.5 h, 10 µM stood at 91%.
As to `O=C(Nc1ccc(-c2ccccc2C(F)(F)F)s1)C(F)(F)F` [CBK099942], the viability at 28.5 h, 10 µM is 96.3%.
Regarding `CC(=O)N1CCC(C(=O)Nc2cccc(-c3ccc4c(c3)COC3(CCNCC3)O4)c2)CC1` [CBK093674], the viability at 28.5 h, 10 µM (bulk resorufin, single well) was determined as 91.4%.
For the compound `COc1ccc(-c2n[nH]c(=S)n2CC(=O)N2CCN(c3cccc(C)c3)CC2)cc1` [CBK295352], the viability at 28.5 h, 10 µM stood at 88.6%.
The same measure, in the same setting: to `CC(C)NC(=O)NC(=O)C1CCN(CCOc2ccc(Cl)cc2Cl)CC1` [CBK034949] belongs 106%.
Same read-out and setting: to `COc1ccc(/C=C(/NC(=O)/C=C/c2ccccc2)C(=O)O)cc1` [CBK264996] belongs 94.8%; to `CSCCC(C(=O)O)N1C(=O)C(=Cc2ccc(-c3cc(Cl)cc(Cl)c3)o2)SC1=S` (stereo not shown) [CBK296984], 87.3%; to `Cc1c(-c2cccc(C(=O)N(CCO)C3CCS(=O)(=O)C3)c2)cnn1C` (stereo not shown) [CBK307621], 86.5%.
As to `COc1ccc([C@@]23CC[C@@H](NC(=S)NC(C)=O)C[C@@H]2N(Cc2ccccc2)CC3)cc1OC` [CBK025503T], the viability at 28.5 h, 10 µM worked out at 90.2%.
Still for that read-out and setting: to `O=C(CN1CCOCC1)N1CCC(F)CC1` [CBK200383] belongs 83.5%.
Same read-out and setting: to `Cc1nccn1CC1(O)CCN(CC(C)c2ccccc2)CC1` (stereo not shown) [CBK284954] belongs 107%.
As for `CCCNC(=O)Cn1cnc2sc(C(=O)Nc3ccccc3OC)c(C)c2c1=O` [CBK071910], the viability at 28.5 h, 10 µM is 90.3%.
Still for that read-out and setting: to `CC(C)c1ccc(/C=C/C(=O)NCc2ccc3occc3c2)cc1` [CBK149620] belongs 93.3%.
Still for that read-out and setting: to `O=C(c1cc(S(=O)(=O)N2CCOCC2)ccc1Cl)N1CCCCC1` [CBK304377] belongs 94.1%.
Consider `Cc1cc(C(F)(F)F)c2c(NCc3ccoc3)n[nH]c2n1` [CBK284698], for which the viability at 28.5 h, 10 µM amounted to 82.9%.
The same measure, in the same setting: next, `Cc1nc2n(n1)C(c1ccccn1)C1=C(CC(C)CC1=O)N2` (stereo not shown) [CBK288230]: 82.9%.
Still for that read-out and setting: to `N#Cc1nonc1NCn1nnc2ccccc21` [CBK062650] belongs 81.7%; to `O=C(NC(c1ccccc1)c1ccsc1)C1CCN(CCc2ccccc2)CC1` (stereo not shown) [CBK148433], 98.1%.
On to `C[C@H](C(=O)N1CCCC1)C1CC[C@@]2(C)Cc3sc(NC(=O)C4CC4)nc3[C@@H](C)[C@@H]2[C@H]1O` (stereo partly shown) [CBK289432], for which the viability at 28.5 h, 10 µM turned out to be 103%.
Same read-out and setting: next, `CCc1ccc(CN(C(=O)c2cc(OC)c(OC)c(OC)c2)C2CCS(=O)(=O)C2)cc1` (stereo not shown) [CBK293961]: 98.4%; `Cc1cc(C(=O)NC(Cc2ccncc2)C2CC(O)C2)c(C)o1` (stereo not shown) [CBK307181]: 96.5%; `CC(NS(=O)(=O)c1ccccc1Cl)C(=O)N1CCCCC1C` (stereo not shown) [CBK305797]: 93.9%.
Still for that read-out and setting: to `CCN(CC)C(=O)CN1CCC(c2ccc(F)cc2)CC1` [CBK285475] belongs 108%; to `Cc1csc(C(Cc2ccsc2)NC(=O)Cn2ccnc2)n1` (stereo not shown) [CBK285113], 106%; to `Cc1ccc(S(=O)(=O)Nc2cccc(C(=O)O)c2)cc1` [CBK038891], 84.1%.
The same measure, in the same setting: to `CNS(=O)(=O)c1ccc(C)c(NC(C)=O)c1C` [CBK034426] belongs 88.5%; to `O=CN1CCc2c([nH]c3ccccc23)C12CCN(CC1CC1)CC2` [CBK040315], 91.8%.
As for `O=C(CCN1C(=O)/C(=C/c2ccc(F)cc2)SC1=S)NNC(=O)c1ccncc1` [CBK262821], the viability at 28.5 h, 10 µM came out at 92.4%.
On the same count and under the same terms, next, `Fc1cccc(N2CCN(Cc3ccccc3)CC2)n1` [CBK000144]: 102%; `Cc1cc(NC(=O)CN(C)c2ncccc2C#N)no1` [CBK304182]: 77.7%.
Still for that read-out and setting: next, `O=C(NCCc1ccccc1)c1nc(-c2ccncc2)cs1` [CBK288604]: 70%.
Same read-out and setting: next, `O=C(CO)N1CC2(CCN(CCO)CC2)c2ccccc21` [CBK131507]: 79.7%; `Cc1cc(C)c(C)c(S(=O)(=O)Nc2cc(S(=O)(=O)N3CCOCC3)ccc2F)c1C` [CBK269698]: 61.9%.
In the case of `CC(=O)NCCC1CCN(c2nc(C(C)(C)C)nc3c2cnn3C)CC1` [CBK307364], the viability at 28.5 h, 10 µM stood at 96.7%.
Still for that read-out and setting: next, `CCOCCCNC(=O)c1cccc(S(=O)(=O)N2CCCC2)c1` [CBK305934]: 104%; `COc1ccc2[nH]c(/C(C#N)=C\c3ccc(-c4cc(C(=O)O)ccc4Cl)o3)nc2c1` [CBK268370]: 90.4%; `c1ccc(C(Nc2cnccn2)C2CC2)cc1` (stereo not shown) [CBK304145]: 106%.
Same read-out and setting: to `Cc1ccc(N2C(=O)c3ccccc3NC23C(=O)N(C)c2ccc(Br)cc23)cc1` (stereo not shown) [CBK103752] belongs 85.2%; to `O=C(CCCn1cccn1)N1CCOC(c2ccc(Cl)c(Cl)c2)C1` (stereo not shown) [CBK304640], 98.5%.
Still for that read-out and setting: to `Cc1ccc(N2C(=O)c3ccc(C(=O)c4ccc(C(=O)O)cc4)cc3C2=O)cc1` [CBK287164] belongs 93.5%; to `Cc1nn(CCC(=O)NC2CCOc3ccccc32)c(C)c1Cl` (stereo not shown) [CBK281684], 96.7%.

In general, viability refers to a read-out of living cells in per cent, often relative to untreated cells.
